Test system: rat anterior pituitary cells
Assay: in vitro inhibition of growth hormone release from dispersed rat anterior pituitary cells (radioimmunoassay)
Type: cell-based
Settings: rat anterior pituitary cells 4 days in culture, incubated 5 hours at 37° C., potency from ED50 relative to somatostatin
Experimental: Meyers et al., Biochem. Biophys. Res. Commun., 74, 630(1977). In this method, the tetradecapeptides of this invention are shown to inhibit the release of radioimmunoassayable growth hormone in vitro from enzymatically dispersed rat anterior pituitary cells prepared as described by F. Labrie et al., Sixth Karolinska Symp. on Res. Meth. in Reprod. Endocrinol. (W. Dozfalusy, Ed.), pp 301-328(1973). Following four days in culture, the cells are washed and incubated for five hours at 37° C. in Dulbecco-modified Eagle's medium in the presence or absence of increasing concentrations of each tetradecapeptide analog. Growth hormone levels are determined by double antibody radioimmunoassay, method described by C. A. Birge et al., Endocrinol., 81, 195-204(1967), for rat growth hormone using the NIAMDD Rat GH RIA kit. The dose required for a 50% inhibition of growth hormone release (ED50) is calculated for each analog by the method of D. Rodbard, Endocrinol., 94, 1427-1437(1974). The potency of the tetradecapeptide analogs of this invention relative to somatostatin is illustrated in table I.

Row | Molecule | Growth Hormone Release-Inhibiting Activity, Relative to Somatostatin
1 | cyclic[3-14 disulfide] of L-alanyl-glycyl-L-cysteinyl-L-asparaginyl-L-lysyl-L-phenylalanyl-L-phenylalanyl-L-5-fluorotryptophyl-L-lysyl-L-threonyl-L-phenylalanyl-L-threonyl-L-seryl-L-cysteine [Example L-5-F-Trp] | 476%
2 | C[C@H](N)C(=O)NCC(=O)N[C@H]1CSSC[C@@H](C(=O)O)NC(=O)[C@H](CO)NC(=O)[C@H]([C@@H](C)O)NC(=O)[C@H](Cc2ccccc2)NC(=O)[C@H]([C@@H](C)O)NC(=O)[C@H](CCCCN)NC(=O)[C@@H](Cc2c[nH]c3ccc(F)cc23)NC(=O)[C@H](Cc2ccccc2)NC(=O)[C@H](Cc2ccccc2)NC(=O)[C@H](CC(N)=O)NC(=O)[C@H](CCCCN)NC1=O [Example D-5-F-Trp, cyclic[3-14 disulfide] of L-alanyl-glycyl-L-cysteinyl-L-lysyl-L-asparaginyl-L-phenylalanyl-L-phenylalanyl-D-5-fluorotryptophyl-L-lysyl-L-threonyl-L-phenylalanyl-L-threonyl-L-seryl-L-cysteine] | 2499%
